Test results reported in article PMC11784839, “Monoaminergic neurotransmitters are bimodal effectors of tau aggregation” (Science Advances, 2025).

Target: tau (Homo sapiens, UniProt P10636)
Assay: MCE Phenols Library screening, tau biosensor cell seeding assay (AvZ)
Type: cell-based
Conditions: for Z repl 1 / Z Repl 2: Z score; for Z repl 1 / raw data 1: replicate 1; for Z Repl 2 / raw data 2: replicate 2; for AvZ (average z score of seeding, SDs from the mean level of seeding): 10 μM phenol in cell cultures, AD brain homogenate preincubated 16 hours, two biological replicates, positive = catalyzes seeding, negative = inhibits
[1] = average Z score of the two replicates, MCE Phenols Library screen
[2] = average puncta of the two replicates
[3] = average Z score of the two replicates, tau biosensor seeding, MCE Phenols Library screen
[4] = average Z score of two replicates, Phenols Library screen

tau, sequence (P10636 623-695 limits assumed): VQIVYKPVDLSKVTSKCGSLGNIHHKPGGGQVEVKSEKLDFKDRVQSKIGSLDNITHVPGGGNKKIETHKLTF

Compound	Z repl 1	Z Repl 2	av Z [1]	av puncta [2]	raw data 1 (puncta)	raw data 2 (puncta)	raw data 1 (raw puncta)	raw data 2 (raw puncta)	av Z [3]	av puncta (average of raw data 1 and 2)	av Z [4]	AvZ (average z score of seeding, SDs from the mean level of seeding)	av Z (average Z score of the two replicates, tau seeding)
C[C@@H]1O[C@@H](OC[C@H]2O[C@@H](Oc3c(-c4ccc(O)cc4)oc4cc(O)cc(O)c4c3=O)[C@H](O[C@@H]3O[C@@H](C)[C@H](O)[C@@H](O)[C@H]3O)[C@@H](O)[C@@H]2O)[C@H](O)[C@H](O)[C@H]1O [Clitorin]	-0.088	-0.968	-0.528	13858.4	25288.8	2427.91							
COc1cc2cc(Oc3ccc4ccc(=O)oc4c3)c(=O)oc2cc1O [Daphnoretin]	-0.257	-0.157	-0.207	17173.7			23258.6	11088.8					
COc1ccc(-c2cc(=O)c3c(O)cc(O[C@@H]4O[C@H](CO)[C@@H](O)[C@H](O)[C@H]4O[C@@H]4O[C@@H](C)[C@H](O)[C@@H](O)[C@H]4O)cc3o2)cc1O [Neodiosmin]	1.202	0.25			40782.2	15434.5			0.726	28108.4			
Medicarpin	-0.987	-0.112	-0.55	13032.4	14494.9	11569.9							
CCC1(c2ccc(O)cc2)NC(=O)N(C)C1=O (stereo not drawn) [4-Hydroxymephenytoin]	-0.081	-0.754	-0.418	15044.9			25375.4	4714.28					
Cc1cc(=O)oc2cc(O)ccc12 [4-Methylumbelliferone]	-0.898	-0.379	-0.639	12140.1	15562.7	8717.47							
Corylin	-0.181	-0.689	-0.435	14787.4			24170.2	5404.62					
Oc1cc(O)c2c(c1)O[C@@]1(c3ccc(O)c(O)c3)Oc3cc(O)c4c(c3[C@@H]2[C@H]1O)O[C@H](c1ccc(O)c(O)c1)[C@H](O)C4 [Procyanidin A2]	-0.531	-0.919	-0.725	11465	19975.5	2954.48							
COc1cc(O)c(C(=O)/C=C/c2ccc(O)cc2)cc1CC=C(C)C [4'-O-Methylbavachalcone]	-0.312	0.23			22607.8	15222.5				18915.2	-0.041		
C=CCc1ccc(O)c(O)c1 [4-Allylcatechol]	-0.394	-1.127			21621.8	725.499				11173.7		-0.761	
COc1ccc(O)c(C(=O)O)c1 [5-Methoxysalicylic acid]	-0.389	0.66			21680.5	19818.6				20749.6		0.136	
COc1ccc(-c2cc(=O)c3c(O)c(OC)c(OC)cc3o2)cc1O [Eupatorin]	0.938	0.779			37615.7	21089.9			0.859	29352.8			
CC(=O)CCc1ccc(O)cc1 [Raspberry ketone]	0.027	-0.77		15608.2			26674.5	4541.81				-0.371	
CCOC(=O)c1cc(O)c(O)c(O)c1 [Ethyl gallate]	-0.43	-1.15			21190.3	484.087				10837.2		-0.79	
CC(=O)c1ccc(O)c(C)c1 [4'-Hydroxy-3'-methylacetophenone]	0.035	-0.259			26771.9	10003.1				18387.5		-0.112	
COc1cc(O)c2c(=O)c(OC)c(-c3ccc(OC)c(OC)c3)oc2c1 [Retusin]	-0.575	-0.37	-0.472	14132.2	19450.4	8814.06							

Compound	Z repl 1	Z Repl 2	av Z [1]	av puncta [2]	raw data 1 (puncta)	raw data 2 (puncta)	raw data 1 (raw puncta)	raw data 2 (raw puncta)	av Z [3]	av puncta (average of raw data 1 and 2)	av Z [4]	AvZ (average z score of seeding, SDs from the mean level of seeding)	av Z (average Z score of the two replicates, tau seeding)
Cc1ccc(O)c(O)c1 [4-Methylcatechol]	-1.54	-0.975			7864.83	2354.22				5109.52		-1.257	
COC1=C[C@@H]2[C@@H]3Cc4ccc(OC)c(O)c4[C@]2(CCN3C)CC1=O.Cl [Sinomenine hydrochloride]	-0.595	0.066	-0.264	16340.1			19209.2	13470.9					
O=C(OC[C@H]1O[C@@H](OC(=O)c2cc(O)c(O)c(OC(=O)c3cc(O)c(O)c(O)c3)c2)[C@H](OC(=O)c2cc(O)c(O)c(OC(=O)c3cc(O)c(O)c(O)c3)c2)[C@@H](OC(=O)c2cc(O)c(O)c(OC(=O)c3cc(O)c(O)c(O)c3)c2)[C@@H]1OC(=O)c1cc(O)c(O)c(OC(=O)c2cc(O)c(O)c(O)c2)c1)c1cc(O)c(O)c(OC(=O)c2cc(O)c(O)c(O)c2)c1 [Tannic acid]	-2.109	-1.136	-1.623		1030.3	629.309				829.805			
O=C(O)c1ccccc1O [Salicylic acid, reference compound]	-1.015	-0.017		13372.8	14164.1	12581.6						-0.516	
O=C(/C=C/c1ccc(O)cc1)C1=C(O)C(O)([C@@H]2O[C@H](CO)[C@@H](O)[C@H](O)[C@H]2O)C(O)=C([C@@H]2O[C@H](CO)[C@@H](O)[C@H](O)[C@H]2O)C1=O (stereo partly drawn) [Hydroxysafflor yellow A]	-0.826	-0.428	-0.627	12310.1	16428.1	8192.15							
COc1c(O[C@@H]2O[C@H](CO)[C@@H](O)[C@H](O)[C@H]2O)cc2oc(-c3ccc(O)cc3)cc(=O)c2c1O [Homoplantaginin]	-0.079	-0.247			25406.2	10124.2				17765.2	-0.163		
CC(=O)NCCc1c[nH]c2ccc(O)cc12 [N-Acetyl-5-hydroxytryptamine]	0.285	-0.756		17233.8			29776.2	4691.42				-0.235	
O=C(/C=C/c1ccc(O)c(O)c1/C=C/c1ccc(O)c(O)c1)O[C@H](Cc1ccc(O)c(O)c1)C(=O)O [Salvianolic acid A]	-2.14	-1.185	-1.663		661.17	105.765				383.467			
O=C(O)CCc1cccc(O)c1 [3-(3-Hydroxyphenyl)propionic acid]	1.121	1.553			39805	29350.4				34577.7		1.337	
C=C(C)[C@H](CC=C(C)C)Cc1c(O)cc(O)c2c1O[C@H](c1ccc(O)cc1O)CC2=O [Sophoraflavanone G]	-0.704	-0.412	-0.558	13130.1	17897.8	8362.49							
COc1ccccc1O [Guaiacol]	-0.724	-0.582		12102.3	17657.8	6546.75						-0.653	
COc1cc2c(O)c3c(c(-c4ccc5c(c4)OCO5)c2cc1OC)C(=O)OC3 [Diphyllin]	-0.334	-0.918	-0.626	12650.9	22335.7	2966.05							
COc1cc(-c2cc(=O)c3c(O)c(OC)c(O)cc3o2)cc(O)c1OC	0.062	-0.242			27088.2	10181.7				18635	-0.09		
O=C(O)[C@H]1O[C@@H](Oc2cc3oc(-c4ccc(O)cc4)cc(=O)c3c(O)c2O)[C@H](O)[C@@H](O)[C@@H]1O [Scutellarin]	-1.927	-0.903	-1.415		3217.73	3121.8				3169.77			
COc1ccc(/C=C/C(=O)C(C)(C)C(=O)/C=C/c2ccc(OC)c(OC)c2)cc1OC [Tetramethylcurcumin]	-1.086	-0.943	-1.014		13309.5	2696.76				8003.14			
O=C(/C=C/c1ccc(O)cc1)c1ccc(O[C@@H]2O[C@H](CO)[C@@H](O)[C@H](O)[C@H]2O)cc1O [Neoisoliquiritin]	-0.046	0.369			25794.8	16704.1				21249.5			0.161
